Experiment [1] relates to Leukotriene C4 production in mouse peritoneal macrophages. The experiment is described as follows: In vitro mouse peritoneal macrophage Leukotriene C4 inhibition. It counts as cell-based. The following applies: zymosan stimulated, read-out: Percent Inhibition. On the procedure:
IN VITRO MOUSE PERITONEAL MACROPHAGE LEUKOTRIENE C4 INHIBITION
The test described below measures the ability of compounds to inhibit the production of Leukotriene C4 in mouse peritoneal macrophages.
Mice (female, CD-1, weighing 25 g) are euthanized by exposure to carbon dioxide. The pertoneal cavity is exposed by peeling back the abdominal skin. A 5 mL portion of media (M199 containing 1% fetal bovine serum, 100 units/mL of penicillin, 100 μg/mL streptomycin, 20 units/mL of heparin and no glutamine) is injected into the exposed peritoneal cavity of each mouse. The lavage fluid is removed and pooled to yield proximately 1×10^6 macrophages/mL. A 2 mL portion of lavage fluid is added to each well of a 24 well sterile multidish and the marcophages are allowed to adhere to the plate for 2 hours at 37° C. in a 5% carbon dioxide atmosphere. The media is removed and each well is washed with 2 mL of phosphate buffered saline (PBS). A 1 mL portion of media, without heparin, but containing 5 μCi/mL of 3H-myoinositol is added to each well and the plates are incubated overnight at 37° C. in a 5% carbon dioxide atmosphere. The media is removed and the cells are washed twice with 2 mL portions of PBS. A 1 mL portion of Puck's saline formulation A containing 1 mM calcium chloride, 1 mM magnesium chloride and 10 mM lithium chloride is added to each well. (The Puck's formulation is made first as a 10× solution which contains 4 g of potassium chloride, 80 g of sodium chloride and 10 g of glucose per liter. The Puck's saline formulation A is made using 10 mL of the 10× Puck's formulation, 0.47 mL of 7.5% sodium bicarbonate and 2 mL of 1M N-2-hydroxyethylpiperazine-N'-2-ethanesulfonic acid per 100 mL.)
Compounds are dissolved in dimethyl sulfoxide. Compounds are tested at concentrations of 10, 1 and 0.1 μM. Each concentration is tested in duplicate.
A 1 μL portion of compound solution or vehicle (DMSO) is added to each well and the plates are incubated for 15 minutes at 37° C. in a 5% carbon dioxide atmosphere. Zymosan is then added to provide a final concentration of 50 μg/mL in each well and the plate is incubated for 1 to 2 hours at 37° C. in a 5% carbon dioxide atmosphere.
Following incubation 200 μL portions of media are transferred to 12×75 mm tubes. The tubes are either assayed immediately or stored at -20° C. until they can be assayed.
The media is assayed for the presence of Leukotriene C4 by radioimmunoassay which is performed according to the manufacturer's instructions (Advanced Magnetics; Cambridge, Mass.). Inhibition of LTC4 production is calculated as the ratio of the amount of LTC4 formed in the presence (LTC4 +cpd) and absence (LTC4 no cpd)of compound according to the equation below. [formula] IC50 values (concentration of compound producing a 50% inhibition of LTC4 production) are calculated by linear regression analysis of percentage inhibition versus log compound concentration plots.

Experiment [2] concerns Leukotriene B4 production in rat blood. The experiment is described as follows: Rat ex vivo Leukotriene B4 inhibition. The following applies: 50 mg/Kg oral, 2 hours post dose, ex vivo A23187 challenge. It counts as in vivo. On the procedure:
RAT EX VIVO LEUKOTRIENE B4 INHIBITION
The test method described below measures the ability of a compound when administrated orally to rats to inhibit the production of Leukotriene B4 in their blood which is drawn and challenged.
Rats (CD, male, non-fasted, 250 g) are lightly anesthetized with carbon dioxide and an approximately 0.75 mL sample of whole blood is obtained via cardiac puncture. The sample is dispensed into 12×75 mm polypropylene tubes containing 8-10 μL of 10,000 units/mL heparin, mixed and then maintained on ice. The rats are allowed to recover approximately one hour then dosed orally with compound dissolved in PEG 400 at a 5 mL/Kg volume. Five (5) rats are utilized per group. Two (2) hours post dose the rats are again anesthetized with carbon dioxide and the blood sampled again via cardiac puncture.
Duplicate 200 μL portions of blood are added to 1.0 mL polypropylene tubes. A 10 μL portion of 1 mM A23 187 Calcium Ionophore in dimethyl sulfoxide/Tris buffer is added to each tube. The tubes are gently vortexed then incubated in a 37° C. water bath for 30 minutes. The tubes are then centrifuged at 4000 rpm for 10 minutes. 50 μL portions of plasma are transferred to 1.0 mL tubes containing 200 μL of methanol. The tubes are vortexed then placed in the freezer overnight.
The tubes are removed from the freezer then centrifuged at 4000 rpm for 10 minutes. 20 μL portions of the methanol/plasma supernatant and 10 μl methanol dilutions of LTB4 standard are transferred to 96 well v-bottom microtiter plates. The plates are vacuum dried at 40° C. A 40 μL portion of LTB4 radioimmunoassay buffer is added to each well. The plate is bath sonicated for 5 minutes then assayed according to the manufacturer's instructions (Advanced Magnetics; Cambridge, Mass.). Percent inhibition values are obtained by comparing the level of LTB4 in the post-dose samples to the level in the pre-dose samples according to the equation below. [formula]

A further experiment concerns the target T1, 5-lipoxygenase (Homo sapiens, UniProt P09917).
T1 construct: endogenous in cells; host or cells: leukocytes from whole human blood (EDTA, dextran sedimentation, hypotonic lysis)
T1 sequence (P09917 1-674): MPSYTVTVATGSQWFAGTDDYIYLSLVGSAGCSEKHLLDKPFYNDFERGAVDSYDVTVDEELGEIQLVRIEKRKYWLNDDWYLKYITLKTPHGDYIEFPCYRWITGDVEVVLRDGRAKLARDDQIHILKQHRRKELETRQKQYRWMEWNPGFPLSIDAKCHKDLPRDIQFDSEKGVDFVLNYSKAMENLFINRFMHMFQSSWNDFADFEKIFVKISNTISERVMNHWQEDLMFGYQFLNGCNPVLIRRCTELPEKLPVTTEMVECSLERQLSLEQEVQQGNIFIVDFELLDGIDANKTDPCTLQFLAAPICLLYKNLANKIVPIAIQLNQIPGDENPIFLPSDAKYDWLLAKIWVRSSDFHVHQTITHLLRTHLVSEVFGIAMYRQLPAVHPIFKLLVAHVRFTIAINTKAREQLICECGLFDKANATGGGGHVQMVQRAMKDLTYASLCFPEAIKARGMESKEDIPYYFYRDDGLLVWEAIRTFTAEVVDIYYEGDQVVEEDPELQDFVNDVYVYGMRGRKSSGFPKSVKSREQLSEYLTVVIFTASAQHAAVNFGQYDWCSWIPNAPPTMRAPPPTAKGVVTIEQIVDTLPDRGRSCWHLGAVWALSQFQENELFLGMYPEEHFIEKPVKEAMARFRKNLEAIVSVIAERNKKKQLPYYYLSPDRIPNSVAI
Description: 5-Lipoxygenase inhibition in human leukocytes (LTC4 by radioimmunoassay). The following applies: A23187 stimulated, LTC4 readout, read-out: IC50 (concentration producing 50% leukotriene biosynthesis inhibition). It counts as cell-based. On the procedure: 5-LIPOXYGENASE INHIBITION IN HUMAN LEUKOCYTES
The test method described below measures the ability of compounds of the invention to inhibit 5-lipoxygenase activity in human leukocytes.
Whole human blood is collected by venipuncture into EDTA (1.4 mL of 0.25M per 60 mL of whole blood). The red blood cells are sedimented with a 6% dextran/0.9% sodium chloride solution at a ratio of 25 mL whole blood to 15 mL dextran solution. The blood/dextran combination is mixed by inversion and the red blood cells are allowed to settle out for 45 minutes at ambient temperature. The plasma/dextran supernatant is removed then centrifuged at ambient temperature at 3000 rpm for 10 minutes. The plasma/dextran supernatant is removed and the cells are resuspended in 10 mL of the plasma/dextran solution. The cell suspension is combined with 20 mL of water, mixed for 1.5 minutes then immediately combined with 10 mL of 3.6% sodium chloride, mixed and centrifuged at ambient temperature at 3000 rpm for 10 minutes. The pellet is washed with 40 mL of Tris buffer (5.55 mM dextrose, 15.36 mM Tris base, 136.9 mM sodium chloride with pH 7.3-7.4) then centrifuged at 3000 rpm for 10 minutes. The pellet is then resuspended into Tris buffer containing 1 mM calcium chloride to provide approximately 1.0×10^7 cells/mL.
Compounds are dissolved in dimethyl sulfoxide. Compounds are tested at concentrations of 100, 33, 11, 3.7, 1.2 and 0.41 μM. Each concentration is tested in duplicate.
A 15 μL portion of Tris buffer containing 1 mM calcium chloride is added to each well of a 96 well microtiter plate. A 1 μL portion of drug solution or vehicle (dimethyl sulfoxide) is added to each well followed by the addition of a 75 μL portion of the cell suspension. The plates are gently mixed then allowed to stand at ambient temperature for 10 minutes. A 10 μL portion of 30 μM A23187 Calcium Ionophore (prepared by dissolving the ionophore in DMSO and then diluting 1:80 into the Tris buffer) is added to each well except the wells that contain the blanks. The blank wells measure the level of LTC4 production in the absence of A23187. The plates are gently mixed then incubated at 37° C. for 10 minutes.
Following incubation the plates are centrifuged at 2000 rpm for 1.5 minutes and the supernatant is removed as quickly as possible to stop the reaction. The supernatants are frozen at -20° C. until they are assayed.
The supernatants are assayed for the presence of Leukotriene C4 by radioimmunoassay which is performed according to the manufacturer's instructions (Advanced Magnetics; Cambridge, Mass.). Inhibition of leukotriene biosynthesis is calculated as the ratio of the amount of LTC4 formed in the presence (LTC4 +cpd) and absence (LTC4 no cpd) of compound according to the following equation. [formula] IC50 values (concentrations of compound producing 50% leukotriene biosynthesis inhibition) are calculated by linear regression analysis of percentage inhibition versus log compound concentration plots.

The text below walks through data of US6121323A, “Bishydroxyureas” (3M Innovative Properties Company, priority 1997, dated 2000).

A word on the inhibition: it is the change of the read-out against control, counted positive when it falls. As usually defined, the inhibition in vivo is the relative decrease from the control value, in per cent.

Take `CCC(CC)N(O)C(=O)Nc1ccc(Cc2ccc(NC(=O)N(O)C(CC)CC)cc2)cc1` [Example 12, 4,4'-Methylenebis(1-hydroxy-1-(1-ethylpropyl)-3-phenylurea)]: the inhibition at 0.1 µM in experiment [1] (0.1 μM) turned out to be 83%. Besides, the inhibition at 1 µM in experiment [1] (1.0 μM) amounted to 93%. In addition, in experiment [1] (10.0 μM), the inhibition at 10 µM came out at 100%. This compound yielded an inhibition in vivo at 50 mg/kg in experiment [2] of 15%.
On to `CCC(CC)N(O)C(=O)NC(C)(C)c1cccc(C(C)(C)NC(=O)N(O)C(CC)CC)c1` [Example 13, 1,1'-(m-Phenylene)bis(1-methyl-1-(3-hydroxy-3-(1-ethylpropyl)ureido)ethane)], for which the IC50 on 5-lipoxygenase was 65 µM.
Same read-out and setting: then `CCC(CC)N(O)C(=O)Nc1ccc(Oc2ccc(NC(=O)N(O)C(CC)CC)cc2)cc1` [Example 14, 4,4'-Oxybis(1-hydroxy-1-(1-ethylpropyl)-3-phenylurea)], with 0.1 µM; and `CCC(CC)N(O)C(=O)Nc1ccc(NC(=O)N(O)C(CC)CC)cc1` [Example 15, 1,1'-(p-Phenylene)bis(3-hydroxy-3-(1-ethylpropyl)urea)], with 2.1 µM; and `CCC(CC)N(O)C(=O)Nc1ccc(C)c(NC(=O)N(O)C(CC)CC)c1` [Example 16, 1,1'-(4-Methyl-m-phenylene)bis(3-hydroxy-3-(1-ethylpropyl)urea)], with 58.6 µM.
For `CCC(CC)N(O)C(=O)NCCCC(C)CNC(=O)N(O)C(CC)CC` (centres unmarked) [Example 17, 1,1'-(2-Methylpentamethylene)bis(3-hydroxy-3-(1-ethylpropyl)urea)], the IC50 at 5-lipoxygenase came to 12 µM.
Same read-out and setting: the value for `CCC(CC)N(O)C(=O)NCCCCCCCCNC(=O)N(O)C(CC)CC` [Example 18, 1,1'-Octamethylenebis(3-hydroxy-3-(1-ethylpropyl)urea)] was 0.33 µM; that for `CCC(CC)N(O)C(=O)Nc1ccc(Cc2ccc(NC(=O)N(O)C(CC)CC)c(Cl)c2)cc1Cl` [Example 19, 4,4'-Methylenebis(1-hydroxy-1-(1-ethylpropyl)-3-(2-chlorophenyl)urea)] was 0.11 µM.
